Measured values from EP0582261A1, “Cephalosporin compounds and processes for the preparation thereof” (LUCKY LTD., priority 1992, dated 1994).
In brackets after ≈: the same amount, converted by molar mass.

Key:
Assay in all cases: MIC, two-fold dilution method on Müller-Hinton agar
Type in all cases: cell-based
Conditions in all cases: incubated at 37°C for 20 hours
[1] = test system: Acinetobacter calcoaceticus ATCC 15473
Protocol: (§1) The same procedures as described in Example 163 were repeated using 7-amino-1,8-dimethyl[1,3]imidazo[1,2-c] pyrimidine-5-thione prepared in Preparation Example 36 in place of 7-amino-1-methyl[1,3]imidazo[1,2-c]pyrimidine-5-thione to yield 190mg and 180mg of the title compound(a) and (b), respectively, as white solids.
(§2) These MIC values were taken by employing a two-fold dilution method: that is, two-fold serial dilutions of each of the test compounds were made and dispersed in a Müller-Hinton agar medium; 2µl of the standard test strain which had the 10⁷ CFU(Colony Forming Unit) per ml was inoculated on the medium; and these were incubated at 37°C for 20 hours.

[2] = test system: Bacillus cereus ATCC 11778
Protocol: as §1, §2

[3] = test system: Bacillus megaterium ATCC 9885
Protocol: as §1, §2

[4] = test system: Citrobacter freundii ATCC 8090
Protocol: as §1, §2

[5] = test system: Enterobacter aerogenes ATCC 29751
Protocol: as §1, §2

[6] = test system: Enterobacter cloacae ATCC 27508
Protocol: as §1, §2

[7] = test system: Escherichia coli ATCC 10536
Protocol: as §1, §2

[8] = test system: Escherichia coli ATCC 25922
Protocol: as §1, §2

[9] = test system: Klebsiella pneumoniae ATCC 10031
Protocol: as §1, §2

[10] = test system: Micrococcus luteus ATCC 9341
Protocol: as §1, §2

[11] = test system: Morganella morganii ATCC 8076h
Protocol: as §1, §2

[12] = test system: Proteus mirabilis ATCC 25933
Protocol: as §1, §2

[13] = test system: Proteus vulgaris ATCC 6059
Protocol: as §1, §2

[14] = test system: Providencia rettgeri ATCC 9250
Protocol: as §1, §2

[15] = test system: Pseudomonas aeruginosa ATCC 10145
Protocol: as §1, §2

[16] = test system: Pseudomonas aeruginosa ATCC 25619
Protocol: as §1, §2

[17] = test system: Pseudomonas aeruginosa ATCC 27853
Protocol: as §1, §2

[18] = test system: Salmonella typhimurium ATCC 14028
Protocol: as §1, §2

[19] = test system: Serratia marcescens ATCC 27117
Protocol: as §1, §2

[20] = test system: Shigella flexneri ATCC 11836
Protocol: as §1, §2

[21] = test system: Shigella sonnei ATCC 11060
Protocol: as §1, §2

[22] = test system: Staphylococcus aureus ATCC 10537
Protocol: as §1, §2

[23] = test system: Staphylococcus aureus ATCC 6538p
Protocol: as §1, §2

[24] = test system: Staphylococcus epidermidis ATCC 12228
Protocol: as §1, §2

[25] = test system: Streptococcus faecalis ATCC 29212
Protocol: as §1, §2

Compound | MIC values against the standard strains [1] [µg/mL] | MIC values against the standard strains [2] [µg/mL] | MIC values against the standard strains [3] [µg/mL] | MIC values against the standard strains [4] [µg/mL] | MIC values against the standard strains [5] [µg/mL] | MIC values against the standard strains [6] [µg/mL] | MIC values against the standard strains [7] [µg/mL] | MIC values against the standard strains [8] [µg/mL] | MIC values against the standard strains [9] [µg/mL] | MIC values against the standard strains [10] [µg/mL] | MIC values against the standard strains [11] [µg/mL] | MIC values against the standard strains [12] [µg/mL] | MIC values against the standard strains [13] [µg/mL] | MIC values against the standard strains [14] [µg/mL] | MIC values against the standard strains [15] [µg/mL] | MIC values against the standard strains [16] [µg/mL] | MIC values against the standard strains [17] [µg/mL] | MIC values against the standard strains [18] [µg/mL] | MIC values against the standard strains [19] [µg/mL] | MIC values against the standard strains [20] [µg/mL] | further results
7-[(Z)-2-(2-aminothiazol-4-yl)-2-((S-1-carboxyeth-1-oxyimino)acetamido]-3-(7-amino-1-methyl [1,2,4]triazolo[1,5-c]pyrimidinium-5-yl)thiomethyl-3-cephem-4-carboxylate [Exp. 22(S)] | 4 | 128 | 0.25 | 0.063 | 0.5 | 0.016 | 0.031 | 0.13 | 0.031 | 0.13 | ≤0.008 | 0.25 | 0.31 | ≤0.008 | 2 | 1 | 2 | 0.25 | 0.13 | 0.13 | MIC values against the standard strains [21]: 0.063 µg/mL; MIC values against the standard strains [22]: 2 µg/mL; MIC values against the standard strains [23]: 4 µg/mL; MIC values against the standard strains [24]: 1 µg/mL; MIC values against the standard strains [25]: >128 µg/mL
7-[(Z)-2-(2-aminothiazol-4-yl)-2-(1-carboxycyclopentoxyimino)acetamido]-3-(2,7-diamino-1-methyl [1,2,4]triazolo[1,5-c]pyrimidinium-5-yl)thiomethyl-3-cephem-4-carboxylate [Exp. 84] | 2 | 32 | 0.25 | 0.063 | 0.25 | ≤0.008 | 0.063 | 0.063 | 0.063 | 0.016 | ≤0.008 | 0.063 | 0.063 | ≤0.008 | 2 | 1 | 1 | 0.13 | 0.13 | 0.063 | MIC values against the standard strains [21]: 0.13 µg/mL; MIC values against the standard strains [22]: 0.25 µg/mL; MIC values against the standard strains [23]: 0.25 µg/mL; MIC values against the standard strains [24]: 0.5 µg/mL; MIC values against the standard strains [25]: 32 µg/mL
7-[(Z)-2-(2-aminothiazol-4-yl)-2-(methoxy-imino)acetamido]-3-(7-amino-1-methyl[1,2,4]triazolo[1,5-c]pyrimidinium-5-yl)thiomethyl-3-cephem-4-carboxylate [Exp. 46] | 2 | 8 | 0.063 | 0.031 | 0.13 | ≤0.008 | 0.031 | 0.031 | ≤0.008 | 0.016 | ≤0.008 | 0.13 | 0.063 | ≤0.008 | 4 | 2 | 2 | 0.063 | 0.13 | 0.016 | MIC values against the standard strains [21]: 0.063 µg/mL; MIC values against the standard strains [22]: 0.063 µg/mL; MIC values against the standard strains [23]: 0.13 µg/mL; MIC values against the standard strains [24]: 0.063 µg/mL; MIC values against the standard strains [25]: 16 µg/mL
CCC(C)(O/N=C(\C(=O)NC1C(=O)N2C(C(=O)[O-])=C(CSc3nc(N)cc4n3nc(N)[n+]4C)CS[C@H]12)c1csc(N)n1)C(=O)O (stereo partly shown) [Exp. 96(b), 7-[(Z)-2-(2-aminothiazol-4-yl)-2-(2-carboxybut-2-oxyimino)acetamido]-3-(2,7-diamino-1-methyl[1,2,4]triazolo[1,5-c]pyrimidinium-5-yl)thiomethyl-3-cephem-4-carboxylate] | 4 (≈ 5.9 µM) | 16 (≈ 23.6 µM) | 0.25 (≈ 0.369 µM) | 0.13 (≈ 0.192 µM) | 0.5 (≈ 0.738 µM) | 0.063 (≈ 0.093 µM) | 0.13 (≈ 0.192 µM) | 0.13 (≈ 0.192 µM) | ≤0.008 | 0.016 (≈ 0.0236 µM) | ≤0.008 | 0.13 (≈ 0.192 µM) | 0.063 (≈ 0.093 µM) | ≤0.008 | 2 (≈ 2.95 µM) | 0.5 (≈ 0.738 µM) | 1 (≈ 1.48 µM) | 0.25 (≈ 0.369 µM) | 0.13 (≈ 0.192 µM) | 0.031 (≈ 0.0457 µM) | MIC values against the standard strains [21]: 0.13 µg/mL (≈ 0.192 µM); MIC values against the standard strains [22]: 1 µg/mL (≈ 1.48 µM); MIC values against the standard strains [23]: 1 µg/mL (≈ 1.48 µM); MIC values against the standard strains [24]: 0.5 µg/mL (≈ 0.738 µM); MIC values against the standard strains [25]: 16 µg/mL (≈ 23.6 µM)
